For one experiment, the system named is MDA-MB-436 cells. The experiment in a line: Wound healing migration with BAPTA-AM, MDA-MB-436 cells. It is filed as cell-based, human. The conditions noted are these: MDA-MB-436 cells expressing miR-708, BAPTA-AM 20 μM, 48 hours. The procedure:
(§1) Cells were plated in triplicate into 6-well plates (5×10^5 cell/well) and cultured in DMEM containing 10% FBS. A scratch wounded was generated using sterile plastic 200 μl pipette tip, and floating debris removed by washing with PBS. Cell migration was photographed and measured under phase-contrast microscopy. To measure cell migration after depletion of intracellular calcium, a scratch was made and the wound healing was monitored for 48 hr in the presence of 20 μM of BAPTA-AM (Invitrogen). The percentage of wound healed area was measured as a ratio of occupied area to the total area using Image J program (NIH).

Another experiment relates to MDA cells. The experiment in a line: Wound healing / transwell migration with BAPTA-AM, MDA cells. It is filed as cell-based, human. The conditions noted are these: 20 μM BAPTA-AM. The procedure: as §1

Consider `CC(=O)OCOC(=O)CN(CC(=O)OCOC(C)=O)c1ccccc1OCCOc1ccccc1N(CC(=O)OCOC(C)=O)CC(=O)OCOC(C)=O` [BAPTA-AM], for which the values for the cell migration entry with MDA-MB-436 cells, in the experiment on MDA cells (MDA control cells) and in the experiment on MDA cells (MDA-miR708 cells) were “rescued the migration defects”, “dramatic impairment” and “remained less affected”, respectively.

For the origin of these results see patent US9512425B2, “Inhibiting migration of cancer cells” (Cornell University, priority 2012, dated 2016).
